These results are taken from patent US20200207835A1, “SRCP1-BASED THERAPY FOR DISEASES ASSOCIATED WITH PROTEIN AGGREGATION” (THE MEDICAL COLLEGE OF WISCONSIN, INC., priority 2017, published 2020).

In experiment [1] the test system is ^GFPHtt^ex1Q103. Format: cell-based, Dictyostelium discoideum. The following applies: 80 μM VER-155008, 24 hours, Dictyostelium. How it is done: For proteasome inhibition, 5×10^6 cells were incubated with either DMSO or 100 μM MG132 (Sigma-Aldrich) for 18 hours. Following treatment, cells were imaged and/or harvested by spinning at 500 g at room temperature for 5 minutes. Cell pellets were washed three times with 1×PBS and lysed with ice-cold NETN (with protease inhibitor). Lysates were then sonicated twice for 10-15 seconds. To verify inhibition, samples were run on SDS-PAGE and analyzed by western blot for ubiquitin.
For Hsp70 inhibition, 1×10^7 cells were incubated either with DMSO or 80 μM VER155008 (ApexBio) for 24 hours. Following treatments, cells were imaged and/or harvested by spinning at 500 g at room temperature for 5 minutes. Cell pellets were washed three times with 1×PBS and lysed with ice-cold NETN (with protease inhibitor). Lysates were then sonicated twice for 10-15 seconds. To verify inhibition, samples were run on SDS-PAGE and analyzed by western blot for ATG8.
For Dictyostelium cells, 1×10^7 cells were washed three times with ice-cold starvation buffer and then imaged with a 20× objective using the Evos FL Auto Imaging System.

In experiment [2] the test system is ATG8. Kind of experiment: Western blot for ATG8 after Hsp70 inhibition in Dictyostelium. Format: cell-based, Dictyostelium discoideum. The settings on record: 80 μM Ver155008, 24 hours. How it is done:
For Hsp70 inhibition, 1×10^7 cells were incubated either with DMSO or 80 μM VER155008 (ApexBio) for 24 hours. Following treatments, cells were imaged and/or harvested by spinning at 500 g at room temperature for 5 minutes. Cell pellets were washed three times with 1×PBS and lysed with ice-cold NETN (with protease inhibitor). Lysates were then sonicated twice for 10-15 seconds. To verify inhibition, samples were run on SDS-PAGE and analyzed by western blot for ATG8. Following sonication, lysates were subjected to BCA protein assay (ThermoFisher Scientific) and prepared for loading by the addition of 4× laemmli buffer and boiling for four minutes. Samples then loaded on SDS-polyacrylamide gels, ran at 175 V, and transferred onto an Immuno-blot PVDF membrane (Biorad) overnight at 30 V. Membranes were blocked in 5% milk in TBS with 0.1% Tween (TBST) and incubated in primary antibody overnight at 4° C. Following primary, membranes were washed for 10 minutes at room temperature three times with TBST and incubated in secondary for an hour at room temperature. Membranes were then washed for 10 minutes at room temperature three times with TBST and then incubated in buffer for enhanced chemiluminescence (50 mM Na2HPO4; 50 mM Na2CO3; 10 mM NaBO3.4H2O; 250 mM luminol; 90 mM coumaric acid).

In the case of `N#Cc1ccc(COC[C@H]2O[C@@H](n3c(NCc4ccc(Cl)c(Cl)c4)nc4c(N)ncnc43)[C@H](O)[C@@H]2O)cc1` [VER-155008], the “accumulation of aggregated GFPHttex1Q103” value in experiment [1] is “does not lead to accumulation of aggregated”. Also, the ATG8 protein levels entry in experiment [2] is given as “leads to an increase of ATG8 proteins levels”.
